Eight molecules from patent US20240270762A1, “PENICILLIN-BINDING PROTEIN INHIBITORS” (priority 2021, published 2024) can be followed below.

In brackets after ≈: the same amount, converted by molar mass. Read-outs that look alike come from different tables or passages of the source.

The target of experiment [1] is T1, PBP3 from Pseudomonas aeruginosa (PAO1) (Pseudomonas aeruginosa, UniProt G3XD46).
T1 construct: made in house
Briefly: Bocillin-FL fluorescence polarization competition binding, P. aeruginosa PBP3. As to conditions: Binding affinity to P. aeruginosa PBP3; fluorescence polarization competition binding assay using Bocillin-FL; read-out: P. aeruginosa PBP3 Potency. In outline:
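Purified PBP was preincubated with inhibitor (E. coli PBP3 1.5 μM, 30 min; P. aeruginosa PBP3 0.75 μM, A. baumannii PBP3 0.2 μM and PBP1a 1 μM, 15 min), then Bocillin-FL (0.1 μM; 0.05 μM for PBP1a) added and FP read up to 60 min. EC50 = 50% loss of bound probe.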

In experiment [2] the test system is P. aeruginosa ATCC 27853. Kind of experiment: microbe, parasite or virus in culture. Conditions: Pseudomonas aeruginosa, ATCC27853, read-out: Minimum inhibitory concentration, P. aeruginosa ATCC 27853. It counts as cell-based.
The test system of experiment [3] is P. aeruginosa CDC-0095. Kind of experiment: microbe, parasite or virus in culture. Type of experiment: cell-based. Conditions: Pseudomonas aeruginosa, CDC0095, read-out: Minimum inhibitory concentration, P. aeruginosa CDC-0095.
The test system of experiment [4] is A. baumannii CDC-0036. Kind of experiment: microbe, parasite or virus in culture. It counts as cell-based. As to conditions: Acinetobacter baumannii, CDC0036, read-out: MIC, A. baumannii CDC-0036.
In experiment [5] the test system is A. baumannii CDC-0045. Kind of experiment: microbe, parasite or virus in culture. It counts as cell-based. As to conditions: Acinetobacter baumannii, CDC0045, read-out: MIC, A. baumannii CDC-0045.
Experiment [6] deals with B. thailandensis ATCC 700388. Briefly: microbe, parasite or virus in culture. As to conditions: Burkholderia thailandensis, ATCC700388, read-out: Minimum inhibitory concentration (MIC), B. thailandensis ATCC 700388. Type of experiment: cell-based.
Experiment [7] has as its system B. humptydooensis ATCC BAA-2767. Kind of experiment: microbe, parasite or virus in culture. It counts as cell-based. As to conditions: Burkholderia humptydooensis, ATCCBAA2767, read-out: Minimum inhibitory concentration (MIC), B. humptydooensis ATCC BAA-2767.
In experiment [8] the test system is P. aeruginosa CDC-0110. Kind of experiment: microbe, parasite or virus in culture. Type of experiment: cell-based. Conditions: Pseudomonas aeruginosa, CDC0110, read-out: Minimum inhibitory concentration, P. aeruginosa CDC-0110.
Experiment [9] concerns N. gonorrhoeae FA1090. Briefly: Liquid broth MIC in Fastidious broth. Conditions: Neisseria gonorrhoeae.
Experiment [10] has as its system N. gonorrhoeae WHO G. Briefly: Liquid broth MIC in Fastidious broth. Conditions: Neisseria gonorrhoeae.
The subject of experiment [11] is N. gonorrhoeae WHO L. Kind of experiment: Liquid broth MIC in Fastidious broth. As to conditions: Neisseria gonorrhoeae.
Experiment [12] has as its system N. gonorrhoeae WHO Q. Kind of experiment: Liquid broth MIC in Fastidious broth. As to conditions: Neisseria gonorrhoeae.
Procedure: Liquid broth-based assays were used for antibacterial testing of PBP inhibitors in Neisseria gonorrhoeae. Briefly, cryo-preserved bacterial cultures of clinical strains were streaked for isolation on Chocolate Agar (72 g/L (2×) GC Agar Base (BD #228950) and 2% (2×) Hemoglobin was autoclaved at 121° C. for 20 minutes to sterilize. Once cooled to ˜50° C. the 2×GC Agar Base and 2× Hemoglobin solutions are combined and 1% IsoVitaleX Enrichment (BD #211876) was added to the solution). Strains were incubated at 36° C. and 5% CO2 to allow growth of colonies, 24 hours before inoculum preparation. 2-fold serial dilutions of test compounds were conducted in a 96 well plate with a final volume of 75 μL per well at 2-fold the final desired concentration in Fastidious broth (Remel #R07664). For preparation of assay inoculum, a direct suspension was prepared by aseptically swabbing 10-15 colonies from agar plates into culture tubes containing 2 mL of fresh sterile saline. After the dilution plates were set up, direct suspensions were then diluted in a cuvette containing sterile saline and the optical density was measured at 600 nm. Inocula were diluted such that 75 μL of this culture in Fastidious broth results in a starting bacterial concentration of 5×10^5 CFU/mL when added to the dilution plates. The plates were incubated for ˜24 hours at 36° C. and 5% CO2.
Where [13] appears, read: FA1090, read-out: Minimum Inhibitory Concentration, FA 1090.
The mark [14] stands for this setting: read-out: Minimum Inhibitory Concentration, WHO G.
Where [15] appears, read: read-out: Minimum Inhibitory Concentration, WHO L.
Setting [16] is: read-out: Minimum Inhibitory Concentration, WHO Q.
The mark [17] stands for this setting: FA1090, read-out: Minimum Inhibitory Concentration (MIC), N. gonorrhoeae FA 1090.
Where [18] appears, read: read-out: Minimum Inhibitory Concentration (MIC), N. gonorrhoeae WHO G.
Where [19] appears, read: read-out: Minimum Inhibitory Concentration (MIC), N. gonorrhoeae WHO L.
Where [20] appears, read: read-out: Minimum Inhibitory Concentration (MIC), N. gonorrhoeae WHO Q.

T1 sequence (G3XD46 whole entry): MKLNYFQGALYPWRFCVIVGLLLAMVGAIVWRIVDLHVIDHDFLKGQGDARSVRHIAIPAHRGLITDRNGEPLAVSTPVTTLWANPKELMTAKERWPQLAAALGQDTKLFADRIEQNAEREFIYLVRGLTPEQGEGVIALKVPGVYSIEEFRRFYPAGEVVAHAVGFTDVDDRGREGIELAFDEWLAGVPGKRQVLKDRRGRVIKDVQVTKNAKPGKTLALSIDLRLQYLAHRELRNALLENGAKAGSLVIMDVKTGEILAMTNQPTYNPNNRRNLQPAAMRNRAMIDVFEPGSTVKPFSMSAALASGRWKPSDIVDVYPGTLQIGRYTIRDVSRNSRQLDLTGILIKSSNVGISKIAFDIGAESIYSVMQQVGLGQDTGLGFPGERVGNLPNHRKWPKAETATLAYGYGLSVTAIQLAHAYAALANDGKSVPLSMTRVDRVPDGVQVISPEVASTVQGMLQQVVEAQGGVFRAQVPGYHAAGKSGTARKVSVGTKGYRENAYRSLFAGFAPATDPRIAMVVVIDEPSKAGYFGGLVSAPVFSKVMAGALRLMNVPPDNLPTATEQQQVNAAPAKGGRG

As for `O=C(NCCN1CCN(C(=O)NC(C(=O)N[C@H]2Cc3ccc(F)c(C(=O)O)c3OB2O)c2cc(F)c(O)c(O)c2Cl)C1=O)c1nccs1` (stereo partly drawn) [Example 247, (3R)-3-(2-(2-chloro-5-fluoro-3,4-dihydroxyphenyl)-2-(2-oxo-3-(2-(thiazole-2-carboxamido)ethyl)imidazolidine-1-carboxamido)acetamido)-7-fluoro-2-hydroxy-3,4-dihydro-2H-benzo[e][1,2]oxaborinine-8-carboxylic acid], the IC50 in experiment [1] is less than 10 µM. The MIC in experiment [2] is 2 to 4 µg/mL (≈ 2.82 to 5.64 µM); in experiment [3] it was 2 to 4 µg/mL (≈ 2.82 to 5.64 µM); in experiment [4], less than 1 µg/mL; in experiment [5], less than 1 µg/mL; in experiment [6], less than 1 µg/mL; in experiment [7], less than 1 µg/mL. In addition, the MIC in [8] is less than 1 µg/mL; in experiment [9] (setting [13]), 4 to 8 µg/mL (≈ 5.64 to 11.3 µM); in experiment [10] (setting [14]) it was 16 to 32 µg/mL (≈ 22.6 to 45.1 µM); in experiment [11] (setting [15]), more than 64 µg/mL; in [12] (setting [16]), 16 to 32 µg/mL (≈ 22.6 to 45.1 µM).

Turning to `O=C(NCCCN1CCN(C(=O)NC(C(=O)N[C@H]2Cc3ccc(F)c(C(=O)O)c3OB2O)c2cc(F)c(O)c(O)c2Cl)C(=O)C1=O)c1ccncc1` (stereo partly drawn) [Example 205, (3R)-3-(2-(2-chloro-5-fluoro-3,4-dihydroxyphenyl)-2-(4-(3-(isonicotinamido)propyl)-2,3-dioxopiperazine-1-carboxamido)acetamido)-7-fluoro-2-hydroxy-3,4-dihydro-2H-benzo[e][1,2]oxaborinine-8-carboxylic acid], in experiment [1], the IC50 is less than 10 µM. Moreover, the MIC in [2], in experiment [3], in experiment [4], in experiment [5], in experiment [6] and in experiment [7] was less than 1 µg/mL throughout. Also, the MIC was less than 1 µg/mL in experiment [8]; 1 to 2 µg/mL (≈ 1.34 to 2.69 µM) in experiment [9] (setting [17]); 4 to 8 µg/mL (≈ 5.37 to 10.7 µM) in experiment [10] (setting [18]); more than 64 µg/mL in experiment [11] (setting [19]); 16 to 32 µg/mL (≈ 21.5 to 43 µM) in experiment [12] (setting [20]).

`O=C(NCCN1CCN(C(=O)NC(C(=O)N[C@H]2Cc3ccc(F)c(C(=O)O)c3OB2O)c2cc(F)c(O)c(O)c2Cl)C(=O)C1=O)c1cccnc1` (stereo partly drawn) [Example 217, (3R)-3-(2-(2-chloro-5-fluoro-3,4-dihydroxyphenyl)-2-(4-(2-(nicotinamido)ethyl)-2,3-dioxopiperazine-1-carboxamido)acetamido)-7-fluoro-2-hydroxy-3,4-dihydro-2H-benzo[e][1,2]oxaborinine-8-carboxylic acid]: in experiment [1], the IC50 is less than 10 µM. Besides, the MIC was 2 to 4 µg/mL (≈ 2.74 to 5.47 µM) in experiment [2]; 2 to 4 µg/mL (≈ 2.74 to 5.47 µM) in [3]; 8 to 16 µg/mL (≈ 10.9 to 21.9 µM) in experiment [4]; less than 1 µg/mL in experiment [5]; 2 to 4 µg/mL (≈ 2.74 to 5.47 µM) in experiment [6]; less than 1 µg/mL in experiment [7]. The MIC was less than 1 µg/mL in experiment [8]; 1 to 2 µg/mL (≈ 1.37 to 2.74 µM) in [9] (setting [17]); 16 to 32 µg/mL (≈ 21.9 to 43.8 µM) in experiment [10] (setting [18]); more than 64 µg/mL in experiment [11] (setting [19]); more than 64 µg/mL in experiment [12] (setting [20]).

For `O=C(NCCN1CCN(C(=O)NC(C(=O)N[C@H]2Cc3ccc(F)c(C(=O)O)c3OB2O)c2cc(F)c(O)c(O)c2Cl)C1=O)c1ccccc1` (stereo partly drawn) [Example 242, (3R)-3-(2-(3-(2-benzamidoethyl)-2-oxoimidazolidine-1-carboxamido)-2-(2-chloro-5-fluoro-3,4-dihydroxyphenyl)acetamido)-7-fluoro-2-hydroxy-3,4-dihydro-2H-benzo[e][1,2]oxaborinine-8-carboxylic acid], the IC50 in experiment [1] is less than 10 µM. Moreover, the MIC in experiment [2] is 2 to 4 µg/mL (≈ 2.85 to 5.7 µM); in experiment [3], 2 to 4 µg/mL (≈ 2.85 to 5.7 µM); in experiment [4] it was 2 to 4 µg/mL (≈ 2.85 to 5.7 µM); in experiment [5] it was less than 1 µg/mL; in experiment [6], 2 to 4 µg/mL (≈ 2.85 to 5.7 µM); in experiment [7], 8 to 16 µg/mL (≈ 11.4 to 22.8 µM). The MIC in experiment [8] is 2 to 4 µg/mL (≈ 2.85 to 5.7 µM); in experiment [9] (setting [17]), 1 to 2 µg/mL (≈ 1.42 to 2.85 µM); in [10] (setting [18]), 16 to 32 µg/mL (≈ 22.8 to 45.6 µM); in experiment [11] (setting [19]) it was more than 64 µg/mL; in experiment [12] (setting [20]), more than 64 µg/mL.

As for `O=C(NCCCN1CCN(C(=O)NC(C(=O)N[C@H]2Cc3ccc(F)c(C(=O)O)c3OB2O)c2cc(F)c(O)c(O)c2Cl)C(=O)C1=O)Nc1cccc(O)c1` (stereo partly drawn) [Example 206, (3R)-3-(2-(2-chloro-5-fluoro-3,4-dihydroxyphenyl)-2-(4-(3-(3-(3-hydroxyphenyl)ureido)propyl)-2,3-dioxopiperazine-1-carboxamido)acetamido)-7-fluoro-2-hydroxy-3,4-dihydro-2H-benzo[e][1,2]oxaborinine-8-carboxylic acid], in [1], the IC50 was less than 10 µM. Besides, the MIC in experiment [2] was 2 to 4 µg/mL (≈ 2.58 to 5.16 µM); in experiment [3] it was less than 1 µg/mL; in [4], less than 1 µg/mL; in experiment [5], less than 1 µg/mL; in [6] it was 2 to 4 µg/mL (≈ 2.58 to 5.16 µM); in experiment [7], less than 1 µg/mL. In addition, the MIC is less than 1 µg/mL in experiment [8]; 1 to 2 µg/mL (≈ 1.29 to 2.58 µM) in experiment [9] (setting [17]); 4 to 8 µg/mL (≈ 5.16 to 10.3 µM) in experiment [10] (setting [18]); more than 64 µg/mL in experiment [11] (setting [19]); 16 to 32 µg/mL (≈ 20.6 to 41.3 µM) in [12] (setting [20]).

As to `O=C(NCCN1CCN(C(=O)NC(C(=O)N[C@H]2Cc3ccc(F)c(C(=O)O)c3OB2O)c2cc(F)c(O)c(O)c2Cl)C(=O)C1=O)c1cccc(O)c1` (stereo partly drawn) [Example 215, (3R)-3-(2-(2-chloro-5-fluoro-3,4-dihydroxyphenyl)-2-(4-(2-(3-hydroxybenzamido)ethyl)-2,3-dioxopiperazine-1-carboxamido)acetamido)-7-fluoro-2-hydroxy-3,4-dihydro-2H-benzo[e][1,2]oxaborinine-8-carboxylic acid], the IC50 in experiment [1] was less than 10 µM. Further, the MIC was 2 to 4 µg/mL (≈ 2.68 to 5.36 µM) in experiment [2]; 2 to 4 µg/mL (≈ 2.68 to 5.36 µM) in [3]; 8 to 16 µg/mL (≈ 10.7 to 21.5 µM) in experiment [4]; 8 to 16 µg/mL (≈ 10.7 to 21.5 µM) in experiment [5]; 8 to 16 µg/mL (≈ 10.7 to 21.5 µM) in [6]; less than 1 µg/mL in [7]. The MIC in experiment [8] was less than 1 µg/mL; in [9] (setting [17]), 1 to 2 µg/mL (≈ 1.34 to 2.68 µM); in experiment [10] (setting [18]), 4 to 8 µg/mL (≈ 5.36 to 10.7 µM); in [11] (setting [19]), more than 64 µg/mL; in experiment [12] (setting [20]), more than 64 µg/mL.

Turning to `O=C(NCCN1CCN(C(=O)NC(C(=O)N[C@H]2Cc3ccc(F)c(C(=O)O)c3OB2O)c2cc(F)c(O)c(O)c2Cl)C1=O)Nc1cccc(O)c1` (stereo partly drawn) [Example 249, (3R)-3-(2-(2-chloro-5-fluoro-3,4-dihydroxyphenyl)-2-(3-(2-(3-(3-hydroxyphenyl)ureido)ethyl)-2-oxoimidazolidine-1-carboxamido)acetamido)-7-fluoro-2-hydroxy-3,4-dihydro-2H-benzo[e][1,2]oxaborinine-8-carboxylic acid], the IC50 in experiment [1] was less than 10 µM. Moreover, the MIC in experiment [2] was 2 to 4 µg/mL (≈ 2.73 to 5.46 µM); in experiment [3] it was 32 to 64 µg/mL (≈ 43.7 to 87.3 µM); in experiment [4], 2 to 4 µg/mL (≈ 2.73 to 5.46 µM); in experiment [5], less than 1 µg/mL; in [6] it was 2 to 4 µg/mL (≈ 2.73 to 5.46 µM); in [7], less than 1 µg/mL. Moreover, the MIC in experiment [8] was less than 1 µg/mL; in [9] (setting [13]) it was 1 to 2 µg/mL (≈ 1.36 to 2.73 µM); in [10] (setting [14]) it was 16 to 32 µg/mL (≈ 21.8 to 43.7 µM); in experiment [11] (setting [15]), more than 64 µg/mL; in experiment [12] (setting [16]), more than 64 µg/mL.

For the molecule `O=C(NCCCN1CCN(C(=O)NC(C(=O)N[C@H]2Cc3ccc(F)c(C(=O)O)c3OB2O)c2cc(F)c(O)c(O)c2Cl)C(=O)C1=O)c1ccccc1` (stereo partly drawn) [Example 202, (3R)-3-(2-(4-(3-benzamidopropyl)-2,3-dioxopiperazine-1-carboxamido)-2-(2-chloro-5-fluoro-3,4-dihydroxyphenyl)acetamido)-7-fluoro-2-hydroxy-3,4-dihydro-2H-benzo[e][1,2]oxaborinine-8-carboxylic acid], in [1], the IC50 was less than 10 µM. The MIC in [2] is 2 to 4 µg/mL (≈ 2.69 to 5.38 µM); in experiment [3], 2 to 4 µg/mL (≈ 2.69 to 5.38 µM); in experiment [4] it was 2 to 4 µg/mL (≈ 2.69 to 5.38 µM); in [5] it was less than 1 µg/mL; in experiment [6], 8 to 16 µg/mL (≈ 10.8 to 21.5 µM); in [7], less than 1 µg/mL. Moreover, the MIC was less than 1 µg/mL in [8]; 4 to 8 µg/mL (≈ 5.38 to 10.8 µM) in [9] (setting [17]); 16 to 32 µg/mL (≈ 21.5 to 43 µM) in [10] (setting [18]); more than 64 µg/mL in experiment [11] (setting [19]); more than 64 µg/mL in [12] (setting [20]).
